Several values for one entry are separate records, joined by “and”; a condition that tells them apart may be missing. Identical values can stand only once.
Experiment: xn = mol fraction of the nth substance listed

C1COCCO1 + O
Conditions | viscosity
303.15 K, 101.3 kPa, x2 = 0.2053 | 1.163 mPa·s
303.15 K, 101.3 kPa, x2 = 0.3758 | 1.322 mPa·s and 1.321 mPa·s
303.15 K, 101.3 kPa, x2 = 0.7952 | 1.738 mPa·s
303.15 K, 101.3 kPa, x2 = 0.8661 | 1.58 mPa·s and 1.579 mPa·s
303.15 K, 101.3 kPa, x2 = 0.9391 | 1.221 mPa·s
303.15 K, 101.3 kPa, x2 = 0.9742 | 0.9855 mPa·s and 0.9853 mPa·s
303.15 K, 101.33 kPa, x1 = 0.0222 | 0.959 mPa·s
303.15 K, 101.33 kPa, x1 = 0.0486 | 1.137 mPa·s
303.15 K, 101.33 kPa, x1 = 0.0806 | 1.332 mPa·s
303.15 K, 101.33 kPa, x1 = 0.12 | 1.521 mPa·s
303.15 K, 101.33 kPa, x1 = 0.143 | 1.608 mPa·s
303.15 K, 101.33 kPa, x1 = 0.17 | 1.674 mPa·s
303.15 K, 101.33 kPa, x1 = 0.2 | 1.726 mPa·s
303.15 K, 101.33 kPa, x1 = 0.235 | 1.75 mPa·s
303.15 K, 101.33 kPa, x1 = 0.25 | 1.749 mPa·s
303.15 K, 101.33 kPa, x1 = 0.275 | 1.74 mPa·s
303.15 K, 101.33 kPa, x1 = 0.323 | 1.704 mPa·s
303.15 K, 101.33 kPa, x1 = 0.334 | 1.685 mPa·s
303.15 K, 101.33 kPa, x1 = 0.38 | 1.634 mPa·s
303.15 K, 101.33 kPa, x1 = 0.45 | 1.538 mPa·s
303.15 K, 101.33 kPa, x1 = 0.5 | 1.46 mPa·s
303.15 K, 101.33 kPa, x1 = 0.537 | 1.417 mPa·s
303.15 K, 101.33 kPa, x1 = 0.648 | 1.282 mPa·s
303.15 K, 101.33 kPa, x1 = 0.716 | 1.215 mPa·s
303.15 K, 101.33 kPa, x1 = 0.795 | 1.153 mPa·s
303.15 K, 101.33 kPa, x1 = 0.846 | 1.125 mPa·s
303.15 K, 101.33 kPa, x1 = 0.918 | 1.098 mPa·s
308.15 K, 101.33 kPa, x1 = 0.0222 | 0.859 mPa·s
308.15 K, 101.33 kPa, x1 = 0.0486 | 1.014 mPa·s
308.15 K, 101.33 kPa, x1 = 0.0806 | 1.184 mPa·s
308.15 K, 101.33 kPa, x1 = 0.12 | 1.349 mPa·s
308.15 K, 101.33 kPa, x1 = 0.143 | 1.419 mPa·s
308.15 K, 101.33 kPa, x1 = 0.17 | 1.479 mPa·s
308.15 K, 101.33 kPa, x1 = 0.2 | 1.525 mPa·s
308.15 K, 101.33 kPa, x1 = 0.235 | 1.549 mPa·s
308.15 K, 101.33 kPa, x1 = 0.25 | 1.553 mPa·s
308.15 K, 101.33 kPa, x1 = 0.275 | 1.546 mPa·s
308.15 K, 101.33 kPa, x1 = 0.323 | 1.518 mPa·s
308.15 K, 101.33 kPa, x1 = 0.334 | 1.503 mPa·s
308.15 K, 101.33 kPa, x1 = 0.38 | 1.46 mPa·s
308.15 K, 101.33 kPa, x1 = 0.45 | 1.38 mPa·s
308.15 K, 101.33 kPa, x1 = 0.5 | 1.317 mPa·s
308.15 K, 101.33 kPa, x1 = 0.537 | 1.282 mPa·s
308.15 K, 101.33 kPa, x1 = 0.648 | 1.17 mPa·s
308.15 K, 101.33 kPa, x1 = 0.716 | 1.112 mPa·s
308.15 K, 101.33 kPa, x1 = 0.795 | 1.06 mPa·s
308.15 K, 101.33 kPa, x1 = 0.846 | 1.036 mPa·s
308.15 K, 101.33 kPa, x1 = 0.918 | 1.017 mPa·s
313.1 K, 101 kPa, x2 = 0.228 | 0.97 mPa·s
313.1 K, 101 kPa, x2 = 0.2741 | 0.989 mPa·s
313.1 K, 101 kPa, x2 = 0.4187 | 1.047 mPa·s
313.1 K, 101 kPa, x2 = 0.7038 | 1.368 mPa·s
313.1 K, 101 kPa, x2 = 0.8099 | 1.376 mPa·s
313.1 K, 101 kPa, x2 = 0.8346 | 1.32 mPa·s
313.1 K, 101 kPa, x2 = 0.8791 | 1.229 mPa·s
313.1 K, 101 kPa, x2 = 0.9194 | 1.083 mPa·s
313.1 K, 101 kPa, x2 = 0.9508 | 0.937 mPa·s
313.1 K, 101 kPa, x2 = 0.9786 | 0.786 mPa·s
313.15 K, 101.3 kPa, x2 = 0.0459 | 0.9391 mPa·s
313.15 K, 101.3 kPa, x2 = 0.09407 | 0.9443 mPa·s
313.15 K, 101.3 kPa, x2 = 0.2053 | 0.9839 mPa·s
313.15 K, 101.3 kPa, x2 = 0.3758 | 1.1 mPa·s
313.15 K, 101.3 kPa, x2 = 0.7952 | 1.377 mPa·s
313.15 K, 101.33 kPa, x1 = 0.0222 | 0.776 mPa·s
313.15 K, 101.33 kPa, x1 = 0.0486 | 0.914 mPa·s
313.15 K, 101.33 kPa, x1 = 0.0806 | 1.061 mPa·s
313.15 K, 101.33 kPa, x1 = 0.12 | 1.199 mPa·s
313.15 K, 101.33 kPa, x1 = 0.143 | 1.265 mPa·s
313.15 K, 101.33 kPa, x1 = 0.17 | 1.322 mPa·s
313.15 K, 101.33 kPa, x1 = 0.2 | 1.365 mPa·s
313.15 K, 101.33 kPa, x1 = 0.235 | 1.386 mPa·s
313.15 K, 101.33 kPa, x1 = 0.25 | 1.383 mPa·s
313.15 K, 101.33 kPa, x1 = 0.275 | 1.384 mPa·s
313.15 K, 101.33 kPa, x1 = 0.323 | 1.366 mPa·s
313.15 K, 101.33 kPa, x1 = 0.334 | 1.352 mPa·s
313.15 K, 101.33 kPa, x1 = 0.38 | 1.316 mPa·s
313.15 K, 101.33 kPa, x1 = 0.45 | 1.249 mPa·s
323.1 K, 101 kPa, x2 = 0.228 | 0.836 mPa·s
323.1 K, 101 kPa, x2 = 0.2741 | 0.85 mPa·s
323.1 K, 101 kPa, x2 = 0.4187 | 0.888 mPa·s
323.1 K, 101 kPa, x2 = 0.591 | 1.063 mPa·s
323.1 K, 101 kPa, x2 = 0.7038 | 1.123 mPa·s
323.1 K, 101 kPa, x2 = 0.8099 | 1.122 mPa·s
323.1 K, 101 kPa, x2 = 0.8346 | 1.078 mPa·s
323.1 K, 101 kPa, x2 = 0.8791 | 1.006 mPa·s
323.1 K, 101 kPa, x2 = 0.9194 | 0.889 mPa·s
323.1 K, 101 kPa, x2 = 0.9508 | 0.774 mPa·s
323.1 K, 101 kPa, x2 = 0.9786 | 0.652 mPa·s

— the CheMixHub viscosity set
